Experimental data as given in patent US20070010454A1, “Method for treating tumor cells resulting in minimal liver toxicity” (priority 2005, published 2007).
Values belong to the compound of their own block, whether it stands above or below them.

What was measured:
tyrosinase [1] = test: UV-VIS spectroscopy of tyrosinase mediated metabolism of alkoxyphenols; type: biochemical; conditions: alkoxyphenol 100 µM, tyrosinase 20 U/mL; compared with the other alkoxyphenols
Description: UV-VIS spectroscopy of tyrosinase mediated metabolism of alkoxyphenols The spectra of a solution containing alkoxyphenol (100 µM) and tyrosinase (20 U/mL) were recorded in the absence and presence of GSH (200 µM) using a GBC UV-Visible spectral spectrophotometer (GC Scientific, Australia). The spectra of the mixture were obtained when GSH was added to the solution either before or after the addition of tyrosinase. The control spectrum was that of the respective alkoxyphenol solution (100 µM) in phosphate buffer [0.1 M (pH 7.4) containing DETAPAC (1 mM)].

tyrosinase [2] = test: Tyrosinase mediated GSH depletion assay; type: biochemical; conditions: for GSH depleted in tyrosinase/O2 metabolizing system, average equivalent: average over the four compounds named; for GSH depleted in tyrosinase/O2 metabolizing system (in words) / GSH depleted in tyrosinase/O2 metabolizing system: alkoxyphenol 100 µM, GSH 200 µM
Description: Tyrosinase (10 µL; 2500 U/mL) was added to a mixture of alkoxyphenol (100 µM) and GSH (200 µM) in a final volume of 1 mL phosphate buffer (0.1 M, pH 7.4, DETAPAC 1 mM). The mixture was pre-incubated for 30, 90, and 180 min at 37° C. A 250 µL aliquot was added to trichloroacetic acid (25 µL; 30% w/v), vortexed and left at room temperature for 5 min. A 100 µL aliquot of the supernatant was then added to a mixture of Ellman's reagent 5,5′-dithiobis-(2-nitrobenzoic acid) DTNB (25 µL; 2 mg/mL) and Tris/HCl buffer (875 µL; 0.1 M, pH 8.94), and then vortexed. […] The standard curve for GSH measurement gave a regression coefficient of greater than 0.99 over the range of 5-200 µM GSH concentrations (data not shown).

B16-F0 melanoma cells = test: MTT cytotoxicity assay in B16-F0 melanoma cell line; type: cell-based, mouse
Description: The mouse B16-F0 cell line was obtained from American Type Culture Collection, USA. A frozen B16-F0 cell vial was washed twice with DMEM media before culturing in 8 mL DMEM supplemented with fetal calf serum (FCS) (10%) and streptomycin/penicillin (100 U/mL) in a T-25 flask (17). All the cell culture processes were carried out in a type II vertical laminar air flow chamber. The B16-F0 cultures were kept at 37° C. under a 5% CO2 atmosphere in a TS Autoflow CO2 Water-Jacketed Incubator (NUAIRE, USA). The culture medium was changed when acidification was indicated by the pH indicator and when needed. To detach the cells from the flask, the media was first removed from the flask. The remaining media was then washed out using sterile phosphate buffered saline (PBS) (2-3 mL). Subsequently, Versene (2-5 mL) was added to the flask and the sample was incubated for 2-3 min in the incubator to provide time for cells to detach. The detached cells were rinsed with ˜10 mL of pre-warmed sterile PBS to dilute Versene. The mixture was transferred into a 50 mL tube. The flask was additionally rinsed with sterile PBS and the content was added to the rest of the cells collected. The cells were then spun down at 800 RPM (Beckman GPR Centrifuge, USA) for 3-5 min. The PBS-Versene mixture was aspirated off. Pelletted cells were then re-suspended in DMEM media (supplemented by FCS 10% and antibiotics 100 U/mL) followed by splitting the mixture into one T-75 flask containing 30 mL media (25% of the media was supplemented from the previous culture step as conditioning media).
To evaluate cytotoxicity, cells were obtained from exponentially growing 90-95% confluent cultures and seeded at 12,500 cells/well in 96-well plates. The cells were kept in 100 µL fresh DMEM media (supplemented by FCS 10% and antibiotics 100 U/mL) for 24 h to allow cell adhesion and environmental adaptation. Subsequently, the cells were treated with additional 150 µL DMEM (supplemented with FCS 10% and antibiotics 100 U/mL) containing various concentrations of alkoxyphenols for 1-4 days. At 24 h interval, the medium was removed and the wells were washed three times using DMEM media alone before adding 40 µL of 2 mg/mL yellow tetrazolium dye (3-(4,5-dimethylthiazolyl-2)-2,5-diphenyltetrazolium bromide) (MTT) (17). The plates were returned to the incubator for a period of 4 h. […] The plates were stored at room temperature in a dark place for an additional 2 h before reading them at 570 nm using XFluor Plate Reader (Tecan US, Inc, USA). […]
Lethal concentrations (LC) which can cause 10% and 50% of the cell death were calculated from the linear regression equation derived from graphing the viability of the cells at day 2 (on x axis) versus the concentration of the drug (on y axis).

melanoma = conditions: cited from earlier work
[3] = test system: rat liver microsomal P450; test: Microsomal mediated GSH depletion assay (rat liver microsomes/NADPH/O2); type: in vitro ADME
Description: Adult male Sprague-Dawley rats, 250-300 g, were obtained from Charles River Laboratories, USA, fed ad libitum, were allowed to acclimatize for 1 week on clay chip bedding in a room with a 12 h light photocycle, an environmental temperature of 21-23° C. and 50-60% relative humidity.
The rats were anesthetized by sodium pentobarbital (60 mg/kg) before surgery in order to prepare the animal before liver removal. Hepatic microsomes were prepared by differential centrifugation as described previously (14). Briefly, the liver was removed and weighed in a beaker on ice. The liver was cut into pieces and washed by cold KCl (154 mM): Tris/HCl (50 mM, pH 7.4) buffer solution then suspended into 4 volumes of KCl:Tris/HCl buffer. The tissue was gently homogenized using an electrical homogenizer and subsequently by a handheld glass tissue grinder before centrifuging at 1935 g (Beckman Avanti J-251, Beckman Rotor-JA-25.5) at 4° C. for 15 mm to remove tissue and cell debris. The supernatant was centrifuged at 12,100 g at 4° C. for 15 min to remove subcellular organelles followed by centrifigation at 100,000 g (Beckman Optima LE-80K, Beckman Rotor-45 Ti) at 4° C. for 1 h. The supernatant was discarded and micorsomes were separated and suspended in 5 mL Tris/HCl buffer (100 mM, pH 7.4) containing 1 mM DETAPAC. The mixture was homogenized using a handheld glass tissue grinder after which an additional 15 mL Tris HCl buffer was added and the solution was aliquoted in 750 µL and stored at −70° C. for subsequent use. Microsomal protein content was determined by a modified Lowry method (15).
The amount of GSH conjugates formed were determined colorimetrically using Ellman's reagent 5,5′-dithiobis-(2-nitrobenzoic acid) (DTNB) (13). Incubation mixtures contained in a final volume of 1 mL phosphate buffer (0.1 M, pH 7.4, DETAPAC 1 mM), 2 mg/mL rat liver microsomes, 200 µM GSH, 1 mM NADPH, and 100 µM alkoxyphenols. The mixtures were gently mixed at 37° C. from which 250 µL aliquots were taken at 30, 60, and 90 min time-interval points into Eppendorf tubes containing 25 µL trichloroacetic acid (30% w/v). Following protein precipitation and centrifugation for 5 min, the GSH levels of a 100 µL aliquot of the supernatant was determined by the addition of 0.1 M Tris/HCl buffer, pH 8.94 (875 µL), and 2 mg/mL DTNB (25 µL). The reduced DTNB formed was determined at 412 nm on a GBC spectral spectrophotometer.

isolated rat hepatocytes = conditions: reactive metabolite of 4-HA formed by liver P450s; cited from earlier work

Structure (SMILES): CC(C)Oc1ccccc1O [2-iPP, 2-iso-propoxyphenol]
fold lower rate of oxidation by tyrosinase/O2 metabolizing system (tyrosinase [1]): 20 fold
GSH depleted in tyrosinase/O2 metabolizing system, average equivalent (tyrosinase [2]; 90 min incubation): 0.15 molar per mole
fold less toxic than the toxic value calculated from Eq. 2 (QSTR) (B16-F0 melanoma cells; LC50 day 2, B16-F0): 3.6 fold

GSH depleted in tyrosinase/O2 metabolizing system (in words) (tyrosinase [2]; 90 min incubation): mole per mole basis
Structure (SMILES): CCOc1ccc(O)cc1 [4-EP]

GSH depleted in tyrosinase/O2 metabolizing system (tyrosinase [2]; 30 min incubation): 1.8 molecular equivalent of GSH per mole
Structure (SMILES): COc1ccc(O)cc1 [4-HA, 4-hydroxyanisole, reference compound]
clinical liver toxicity (in words) (melanoma; clinical trials terminated): serious liver damage occurred
clinical effect (in words) (melanoma; topical application and intra-arterial infusions into patients' legs): Depigmentation and tumor shrinkage
fold more toxic than the toxic value calculated from Eq. 2 (QSTR) (B16-F0 melanoma cells; LC50 day 2, B16-F0): 1.7 fold

GSH depleted in tyrosinase/O2 metabolizing system (tyrosinase [2]; 90 min incubation): 1.8 molecular equivalent of GSH per mole
Structure (SMILES): CC(C)COc1ccc(O)cc1 [4-iBP]

GSH depleted in tyrosinase/O2 metabolizing system, average equivalent (tyrosinase [2]; 90 min incubation): 0.15 molar per mole
Structure (SMILES): CC(C)Oc1ccc(O)cc1 [4-iPP]

GSH depleted in tyrosinase/O2 metabolizing system (tyrosinase [2]; 90 min incubation): 1.8 molecular equivalent of GSH per mole
Structure (SMILES): CCCCOc1ccc(O)cc1 [4-nBP]

Structure (SMILES): CCCCCCOc1ccc(O)cc1 [4-nHP, 4-n-hexyloxyphenol]
GSH depleted in tyrosinase/O2 metabolizing system (tyrosinase [2]; 90 min incubation): 1.8 molecular equivalent of GSH per mole
toxicity towards B16-F0 cells (in words) (B16-F0 melanoma cells; MTT assay, 1-4 days): greatest toxicity
metabolism by liver P450 microsomal preparation (in words) [3]: minimal metabolism
glutathione depletion in microsomal preparations (in words) ([3]; at calculated LC10 and LC50 lethal concentrations for B16-F0): minimally depleting glutathione

GSH depleted in tyrosinase/O2 metabolizing system (in words) (tyrosinase [2]; 90 min incubation): mole per mole basis
Structure (SMILES): CCCOc1ccc(O)cc1 [4-nPP]

GSH depleted in tyrosinase/O2 metabolizing system, average equivalent (tyrosinase [2]; 90 min incubation): 0.15 molar per mole
Structure (SMILES): CCC(C)Oc1ccc(O)cc1 (stereo not shown) [4-sBP]

Structure (SMILES): CC(C)(C)Oc1ccc(O)cc1 [4-tBP, 4-t-butoxyphenol]
fold lower rate of oxidation by tyrosinase/O2 metabolizing system (tyrosinase [1]): 20 fold
GSH depleted in tyrosinase/O2 metabolizing system, average equivalent (tyrosinase [2]; 90 min incubation): 0.15 molar per mole
fold less toxic than the toxic value calculated from Eq. 2 (QSTR) (B16-F0 melanoma cells; LC50 day 2, B16-F0): 3.6 fold
GSH depletion by microsomal P450/NADPH/O2, fold less than 4-HA ([3]; 100 µM concentration): 2.3 fold
glutathione depletion by microsomal P450 system (in words) ([3]; 100 µM concentration): lowest rate of GSH depletion
glutathione depletion by microsomal P450 system (in words) ([3]; 100 µM concentration, listed as 4-t-butoxyphenol): lowest amount of glutathione depletion
GSH depleted by rat liver microsomes/NADPH/O2 ([3]; 90 min incubation, alkoxyphenol 100 µM, 2 mg/mL microsomes, 200 µM GSH): 0.5 equivalents of GSH per mole

Structure (SMILES): O=C1C=CC(=O)C=C1 [p-quinone]
toxicity to isolated rat hepatocytes (in words) (isolated rat hepatocytes): highly toxic
